{"source": "patent US4247702A", "about": "“Method of stabilizing 4-methyl-5-(2'chloroethyl)-thiazol” (Pharmaceutical Licences Company Ltd., priority 1978, dated 1981)", "experiment": "Chloride analysis of decomposition deposit of Clomethiazol-Base kept 7 days at 70° C.", "assay_type": "physicochemical", "conditions": "deposit after 7 days at 70° C., washed with benzene", "description": "Freshly distilled Clomethiazol-Base was kept for 7 days at 70° C., and the precipitated brown deposit (decomposition products) was washed with benzene and analyzed.", "data": [{"smiles": "Cc1ncsc1CCCl", "note": "[CMT-Base, 4-Methyl-5-(2'-Chlorethyl)-thiazol]", "values": [{"measurement": "total chloride greater than the sum of free chloride and chloride of occluded CMT-Base and CMT-HCl (chloride surplus)", "value": 17, "unit": "%"}]}]}
